Conditions: Liquid, Vibrating tube method

CCCOCCC [dipropyl ether]
Conditions	mass density [kg/m3]
283.15 K, 100 kPa	757.39
283.15 K, 5000 kPa	762.38
283.15 K, 10000 kPa	767.05
283.15 K, 15000 kPa	771.45
283.15 K, 20000 kPa	775.62
283.15 K, 25000 kPa	779.52
283.15 K, 30000 kPa	783.28
283.15 K, 35000 kPa	786.9
283.15 K, 40000 kPa	790.38
283.15 K, 45000 kPa	793.67
283.15 K, 50000 kPa	796.87
283.15 K, 55000 kPa	800.02
283.15 K, 60000 kPa	802.99
283.15 K, 65000 kPa	805.87
288.15 K, 100 kPa	752.52
288.15 K, 5000 kPa	757.69
288.15 K, 10000 kPa	762.5
288.15 K, 15000 kPa	767.01
288.15 K, 20000 kPa	771.21
288.15 K, 25000 kPa	775.22
288.15 K, 30000 kPa	779.05
288.15 K, 35000 kPa	782.73
288.15 K, 40000 kPa	786.26
288.15 K, 45000 kPa	789.68
288.15 K, 50000 kPa	792.99
288.15 K, 55000 kPa	796.16
288.15 K, 60000 kPa	799.26
288.15 K, 65000 kPa	802.29
293.15 K, 100 kPa	747.63
293.15 K, 5000 kPa	752.98
293.15 K, 10000 kPa	757.94
293.15 K, 15000 kPa	762.58
293.15 K, 20000 kPa	766.89
293.15 K, 25000 kPa	771.01
293.15 K, 30000 kPa	774.94
293.15 K, 35000 kPa	778.69
293.15 K, 40000 kPa	782.3
293.15 K, 45000 kPa	785.81
293.15 K, 50000 kPa	789.18
293.15 K, 55000 kPa	792.44
293.15 K, 60000 kPa	795.56
293.15 K, 65000 kPa	798.64
298.15 K, 100 kPa	742.71
298.15 K, 5000 kPa	748.24
298.15 K, 10000 kPa	753.37
298.15 K, 15000 kPa	758.15
298.15 K, 20000 kPa	762.57
298.15 K, 25000 kPa	766.81
298.15 K, 30000 kPa	770.85
298.15 K, 35000 kPa	774.71
298.15 K, 40000 kPa	778.42
298.15 K, 45000 kPa	781.98
298.15 K, 50000 kPa	785.42
298.15 K, 55000 kPa	788.74
298.15 K, 60000 kPa	791.97
298.15 K, 65000 kPa	795.06
303.15 K, 100 kPa	737.77
303.15 K, 5000 kPa	743.49
303.15 K, 10000 kPa	748.78
303.15 K, 15000 kPa	753.68
303.15 K, 20000 kPa	758.26
303.15 K, 25000 kPa	762.61
303.15 K, 30000 kPa	766.76
303.15 K, 35000 kPa	770.7
303.15 K, 40000 kPa	774.48
303.15 K, 45000 kPa	778.13
303.15 K, 50000 kPa	781.64
303.15 K, 55000 kPa	785.01
303.15 K, 60000 kPa	788.28
303.15 K, 65000 kPa	791.45
308.15 K, 100 kPa	732.8
308.15 K, 5000 kPa	738.69
308.15 K, 10000 kPa	744.18
308.15 K, 15000 kPa	749.22
308.15 K, 20000 kPa	753.95
308.15 K, 25000 kPa	758.41
308.15 K, 30000 kPa	762.65
308.15 K, 35000 kPa	766.7
308.15 K, 40000 kPa	770.6
308.15 K, 45000 kPa	774.31
308.15 K, 50000 kPa	777.92
308.15 K, 55000 kPa	781.37
308.15 K, 60000 kPa	784.7
308.15 K, 65000 kPa	787.86
313.15 K, 100 kPa	727.8
313.15 K, 5000 kPa	733.9
313.15 K, 10000 kPa	739.57
313.15 K, 15000 kPa	744.77
313.15 K, 20000 kPa	749.62
313.15 K, 25000 kPa	754.2
313.15 K, 30000 kPa	758.55
313.15 K, 35000 kPa	762.71
313.15 K, 40000 kPa	766.68
313.15 K, 45000 kPa	770.47
313.15 K, 50000 kPa	774.17
313.15 K, 55000 kPa	777.67
313.15 K, 60000 kPa	781.06
313.15 K, 65000 kPa	784.29
318.15 K, 100 kPa	722.77
318.15 K, 5000 kPa	729.04
318.15 K, 10000 kPa	735.01
318.15 K, 15000 kPa	740.33
318.15 K, 20000 kPa	745.32
318.15 K, 25000 kPa	750.04
318.15 K, 30000 kPa	754.51
318.15 K, 35000 kPa	758.76
318.15 K, 40000 kPa	762.84
318.15 K, 45000 kPa	766.72
318.15 K, 50000 kPa	770.47
318.15 K, 55000 kPa	774.07
318.15 K, 60000 kPa	777.53
318.15 K, 65000 kPa	780.73
323.15 K, 100 kPa	717.7
323.15 K, 5000 kPa	724.25
323.15 K, 10000 kPa	730.31
323.15 K, 15000 kPa	735.84
323.15 K, 20000 kPa	741
323.15 K, 25000 kPa	745.84
323.15 K, 30000 kPa	750.43
323.15 K, 35000 kPa	754.79
323.15 K, 40000 kPa	758.96
323.15 K, 45000 kPa	762.93
323.15 K, 50000 kPa	766.76
323.15 K, 55000 kPa	770.41
323.15 K, 60000 kPa	773.95
323.15 K, 65000 kPa	777.21
328.15 K, 100 kPa	712.59
328.15 K, 5000 kPa	719.28
328.15 K, 10000 kPa	725.68
328.15 K, 15000 kPa	731.37
328.15 K, 20000 kPa	736.67
328.15 K, 25000 kPa	741.66
328.15 K, 30000 kPa	746.37
328.15 K, 35000 kPa	750.85
328.15 K, 40000 kPa	755.1
328.15 K, 45000 kPa	759.16
328.15 K, 50000 kPa	763.06
328.15 K, 55000 kPa	766.79
328.15 K, 60000 kPa	770.38
328.15 K, 65000 kPa	773.71
333.15 K, 100 kPa	707.45
333.15 K, 5000 kPa	714.57
333.15 K, 10000 kPa	721.03
333.15 K, 15000 kPa	726.88
333.15 K, 20000 kPa	732.34
333.15 K, 25000 kPa	737.47
333.15 K, 30000 kPa	742.3
333.15 K, 35000 kPa	746.89
333.15 K, 40000 kPa	751.24
333.15 K, 45000 kPa	755.35
333.15 K, 50000 kPa	759.32
333.15 K, 55000 kPa	763.16
333.15 K, 60000 kPa	766.84
333.15 K, 65000 kPa	770.23

Source: the NIST ThermoML archive (doi:10.1016/j.fluid.2016.02.009)
